Results published in PMC6099547, “Expression, Purification, and Characterization of a Novel Hybrid Peptide with Potent Antibacterial Activity” (Molecules : A Journal of Synthetic Chemistry and Natural …, 2018).
Marks after values point to notes of the source that are not given here. Where a SMILES comes first, the peptide text is derived from it.

Columns and labels:
[1] = test system: trypsin; assay: Protease susceptibility, residual activity by inhibition zone assay; conditions: trypsin 10 μg/mL in PBS, peptide 1 μM in PBS; control without enzyme; agar diffusion inhibition zone, S. aureus ATCC25923; three replicates
Experimental: Antibacterial activity of recombinant C–L was assayed by the agar diffusion method with S. aureus ATCC25923 as indicator strain. […] The same volume of PBS was used as negative control. The inhibition zone was measured after incubation overnight at 37 °C. […] CVCC1599 as indicator strains. The indicator strains were cultured at 37 °C to logarithmic stage and diluted to the concentration of 1 × 10^6 cfu/mL with Mueller–Hinton (MH) broth medium, and 180 µL culture was dispensed into per well of 96-well microtiter plate. Peptides were then serially diluted, and dilutions were added into the wells (final volume 200 µL). Each assay was performed in triplicate. After incubation at 37 °C for 12 h, the plate was assessed by measuring the OD600. The MIC was defined as the lowest concentration (at which there was no change in optical density) required to prevent the growth of bacteria.
The stability of the purified recombinant C–L and synthesized C–L at different pH values (2.0–11.0) and different temperatures (37, 50, 60, 70, 80, 90, and 100 °C for 20 min) was evaluated. […] Stability of recombinant C–L and synthesized C–L was assessed by the agar diffusion method as described above and the inhibition zones were recorded. S. aureus ATCC25923 was used as the indicator strain and the inhibition zones were recorded.

[2] = test system: pepsin; assay: as above; type: in vitro ADME; conditions: pepsin 10 μg/mL in PBS, agar diffusion inhibition zone; for Functional activity maintained under pepsin: peptide 1 μM in PBS, control without enzyme, S. aureus ATCC25923, three replicates
Experimental: (§1) CVCC1599 as indicator strains. […] Each assay was performed in triplicate.

[3] = biological target: proteinase K (Parengyodontium album, UniProt P06873); assay: as above; type: in vitro ADME; conditions: proteinase K 10 μg/mL in PBS, peptide 1 μM in PBS; control without enzyme; agar diffusion inhibition zone, S. aureus ATCC25923; three replicates
Experimental: as §1

[4] = test system: L. mono. CVCC1599; type: cell-based, Listeria monocytogenes; conditions: 12 h
Experimental: as §1

[5] = test system: E. coli CVCC245; type: cell-based, Escherichia coli; conditions: CVCC245, 12 h
Experimental: as §1

[6] = test system: S. aureus ATCC 25923; type: cell-based, Staphylococcus aureus; conditions: ATCC 25923, 12 h
Experimental: as §1

[7] = test system: sheep erythrocytes; assay: Hemolytic assay; type: cell-based; conditions: red cells of sheep
Experimental: Peptide concentrations that caused 50% hemolysis of sheep erythrocytes at 540 nm were measured to evaluate the hemolytic activities. Sheep erythrocytes with 10 mM phosphate buffered saline (PBS)/0.1% (v/v) Triton X-100 (Sigma, San Francisco, CA, USA) added were used as negative/positive control. Assays were performed in triplicate.

proteinase K, sequence (P06873 106-384): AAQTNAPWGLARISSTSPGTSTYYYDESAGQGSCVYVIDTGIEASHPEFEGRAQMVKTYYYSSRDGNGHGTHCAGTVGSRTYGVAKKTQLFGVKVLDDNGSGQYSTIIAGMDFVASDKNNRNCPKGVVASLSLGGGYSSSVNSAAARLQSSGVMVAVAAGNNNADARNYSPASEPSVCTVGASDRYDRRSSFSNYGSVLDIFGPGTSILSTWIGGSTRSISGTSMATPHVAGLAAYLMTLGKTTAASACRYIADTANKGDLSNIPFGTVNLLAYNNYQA

CC[C@H](C)[C@H](NC(=O)[C@H](CCCCN)NC(=O)[C@H](CCCCN)NC(=O)[C@H](Cc1ccccc1)NC(=O)[C@H](CC(C)C)NC(=O)[C@H](CCCCN)NC(=O)[C@H](Cc1c[nH]c2ccccc12)NC(=O)[C@@H](N)CCCCN)C(=O)N[C@@H](Cc1ccccc1)C(=O)N[C@@H](CCCCN)C(=O)N[C@@H](CCCNC(=N)N)C(=O)N[C@H](C(=O)N[C@H](C(=O)N[C@@H](CCC(N)=O)C(=O)N[C@@H](CCCNC(=N)N)C(=O)N[C@H](C(=O)N[C@@H](CCCCN)C(=O)N[C@@H](CC(=O)O)C(=O)N[C@@H](Cc1ccccc1)C(=O)N[C@@H](CC(C)C)C(=O)N[C@@H](CCCNC(=N)N)C(=O)N[C@@H](CC(N)=O)C(=O)O)[C@@H](C)CC)C(C)C)[C@@H](C)CC [C–L, cecropin A (1–8)–LL37 (17–30)] (H-KWKLFKKIFKRIVQRIKDFLRN-OH)
Functional activity maintained under trypsin [1]: over 50%
Functional activity maintained under pepsin [2]: over 50%
Reduction in activity when exposed to pepsin ([2]; peptide 1 μM): nearly half reduction in activity
Functional activity maintained under proteinase K [3]: over 50%

CC[C@H](C)[C@H](NC(=O)[C@H](CCCCN)NC(=O)[C@H](CCCCN)NC(=O)[C@H](Cc1ccccc1)NC(=O)[C@H](CC(C)C)NC(=O)[C@H](CCCCN)NC(=O)[C@H](Cc1c[nH]c2ccccc12)NC(=O)[C@@H](N)CCCCN)C(=O)N[C@@H](Cc1ccccc1)C(=O)N[C@@H](CCCCN)C(=O)N[C@@H](CCCNC(=N)N)C(=O)N[C@H](C(=O)N[C@H](C(=O)N[C@@H](CCC(N)=O)C(=O)N[C@@H](CCCNC(=N)N)C(=O)N[C@H](C(=O)N[C@@H](CCCCN)C(=O)N[C@@H](CC(=O)O)C(=O)N[C@@H](Cc1ccccc1)C(=O)N[C@@H](CC(C)C)C(=O)N[C@@H](CCCNC(=N)N)C(=O)N[C@@H](CC(N)=O)C(=O)O)[C@@H](C)CC)C(C)C)[C@@H](C)CC [Recombinant C–L] (H-KWKLFKKIFKRIVQRIKDFLRN-OH)
MIC [4]: 2.1 ± 0.03 ^c μg/mL
Functional activity maintained under trypsin [1]: almost the same stability
MIC [5]: 7.2 ± 0.14 ^b μg/mL
MIC [6]: 2.2 ± 0.05 ^c μg/mL
HC50 (hemolytic activity) [7]: 221 ± 3.45 ^a μg/mL
Functional activity maintained under pepsin [2]: almost the same stability
Functional activity maintained under proteinase K [3]: almost the same stability

CC[C@H](C)[C@H](NC(=O)[C@H](CCCCN)NC(=O)[C@H](CCCCN)NC(=O)[C@H](Cc1ccccc1)NC(=O)[C@H](CC(C)C)NC(=O)[C@H](CCCCN)NC(=O)[C@H](Cc1c[nH]c2ccccc12)NC(=O)[C@@H](N)CCCCN)C(=O)N[C@@H](Cc1ccccc1)C(=O)N[C@@H](CCCCN)C(=O)N[C@@H](CCCNC(=N)N)C(=O)N[C@H](C(=O)N[C@H](C(=O)N[C@@H](CCC(N)=O)C(=O)N[C@@H](CCCNC(=N)N)C(=O)N[C@H](C(=O)N[C@@H](CCCCN)C(=O)N[C@@H](CC(=O)O)C(=O)N[C@@H](Cc1ccccc1)C(=O)N[C@@H](CC(C)C)C(=O)N[C@@H](CCCNC(=N)N)C(=O)N[C@@H](CC(N)=O)C(=O)O)[C@@H](C)CC)C(C)C)[C@@H](C)CC [Synthesized C–L] (H-KWKLFKKIFKRIVQRIKDFLRN-OH)
MIC [4]: 2.2 ± 0.05 ^c μg/mL
Functional activity maintained under trypsin [1]: maintained a portion of functional activity
MIC [5]: 7.0 ± 0.21 ^b μg/mL
MIC [6]: 2.0 ± 0.02 ^c μg/mL
HC50 (hemolytic activity) [7]: 219 ± 2.98 ^a μg/mL
Functional activity maintained under pepsin [2]: maintained a portion of functional activity
Functional activity maintained under proteinase K [3]: maintained a portion of functional activity
